Laboratory results: PubChem BioAssay AID248 (DTP/NCI, 2004)
Values joined by “and” are separate entries in the source; they are usually repeats but may differ in a detail not shown here. Equal entries are not always repeated. Inconclusive results and toxic doses are left out. Rule as the data show it: active = T/C of 150% or more; inactive = T/C below 125%.

Tested on: L1210 leukemia ip in BDF1 mice, survival T/C
Assay: NCI In Vivo Anticancer Drug Screen. Data for tumor model L1210 Leukemia (intraperitoneal) in B6D2F1 (BDF1) mice
Conditions: endpoint: mean survival time, higher = longer survival
In short: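 Transplantable tumor model; survival measured in treated vs vehicle control mice. Value = treated/control.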

[1] = dose: 100.0 mg/kg/injection, schedule: Q04DX003 (ip), vehicle: saline
[2] = dose: 200.0 mg/kg/injection, schedule: Q04DX003 (ip), vehicle: saline
[3] = dose: 50.0 mg/kg/injection, schedule: Q01DX009 (ip), vehicle: saline with Tween-80
[4] = dose: 100.0 mg/kg/injection, schedule: Q01DX001 (ip), vehicle: carboxymethylcellulose (CMC)
[5] = dose: 100.0 mg/kg/injection, schedule: Q01DX001 (ip), vehicle: saline
[6] = dose: 200.0 mg/kg/injection, schedule: Q01DX001 (ip), vehicle: carboxymethylcellulose (CMC)
[7] = dose: 200.0 mg/kg/injection, schedule: Q01DX001 (ip), vehicle: saline
[8] = dose: 400.0 mg/kg/injection, schedule: Q01DX001 (ip), vehicle: carboxymethylcellulose (CMC)
[9] = dose: 100.0 mg/kg/injection, schedule: Q01DX009 (ip), vehicle: Klucel (hydroxypropylcellulose) (HPC)
[10] = dose: 200.0 mg/kg/injection, schedule: Q01DX009 (ip), vehicle: Klucel (hydroxypropylcellulose) (HPC)
[11] = dose: 400.0 mg/kg/injection, schedule: Q01DX009 (ip), vehicle: Klucel (hydroxypropylcellulose) (HPC)
[12] = dose: 100.0 mg/kg/injection, schedule: Q01DX001 (ip), vehicle: Klucel (hydroxypropylcellulose) (HPC)
[13] = dose: 200.0 mg/kg/injection, schedule: Q01DX001 (ip), vehicle: Klucel (hydroxypropylcellulose) (HPC)
[14] = dose: 400.0 mg/kg/injection, schedule: Q01DX001 (ip), vehicle: Klucel (hydroxypropylcellulose) (HPC)

Measured: T/C

ClP1(N2CCCCC2)=NP(Cl)(N2CCCCC2)=NP(Cl)(N2CCCCC2)=NP(Cl)(N2CCCCC2)=N1 (configuration not stated)
inactive: [1] 105 % of control | [2] 94 % of control | dose: 400.0 mg/kg/injection, schedule: Q04DX003 (ip), vehicle: saline 94 % of control

Cc1ccc(OC(=O)C(C(=O)Oc2ccc(C)cc2)C(=O)Oc2ccc(C)cc2)cc1
inactive: dose: 25.0 mg/kg/injection, schedule: Q01DX001 (ip), vehicle: saline with Tween-80 104 % of control | dose: 50.0 mg/kg/injection, schedule: Q01DX001 (ip), vehicle: saline with Tween-80 101 % of control | dose: 100.0 mg/kg/injection, schedule: Q01DX001 (ip), vehicle: saline with Tween-80 95 % of control and 98 % of control

COC(C(=O)O)c1cccc2ccccc12 (configuration not stated)
inactive: dose: 100.0 mg/kg/injection, schedule: Q04DX002 (ip), vehicle: Klucel (hydroxypropylcellulose) (HPC) 113 % of control | dose: 200.0 mg/kg/injection, schedule: Q04DX002 (ip), vehicle: Klucel (hydroxypropylcellulose) (HPC) 109 % of control | dose: 400.0 mg/kg/injection, schedule: Q04DX002 (ip), vehicle: Klucel (hydroxypropylcellulose) (HPC) 98 % of control

CC(=O)OC1CCC2(C)C(=CC=C3C2CCC2(C)C3CC(OC(C)=O)C2C(C)C2CCC(C)CN2C(C)=O)C1 (configuration not stated)
inactive: [3] 91 % of control | dose: 100.0 mg/kg/injection, schedule: Q01DX009 (ip), vehicle: saline with Tween-80 91 % of control

CC1([N+](=O)[O-])COP(=O)(O)OC1 (configuration not stated) (tested in a mixture with another compound)
inactive: [4] 109 % of control | [5] 101 % of control [middle of 4 runs] | [6] 109 % of control | [7] 102 % of control [middle of 4 runs] | [8] 107 % of control | dose: 400.0 mg/kg/injection, schedule: Q01DX001 (ip), vehicle: saline 101 % of control and 102 % of control and 103 % of control

COc1ccc(/C=C2/CCOC2=O)cc1
inactive: dose: 12.5 mg/kg/injection, schedule: Q04DX002 (ip), vehicle: Klucel (hydroxypropylcellulose) (HPC) 99 % of control

O=C1c2ccccc2C(=O)c2[nH]ncc21
inactive: dose: 100.0 mg/kg/injection, schedule: Q04DX002 (ip), vehicle: saline with Tween-80 102 % of control | dose: 200.0 mg/kg/injection, schedule: Q04DX002 (ip), vehicle: saline with Tween-80 95 % of control | dose: 400.0 mg/kg/injection, schedule: Q04DX002 (ip), vehicle: saline with Tween-80 91 % of control

Cc1ccc(NC(=S)N(C)C)cc1
inactive: [9] 104 % of control | [10] 108 % of control | [11] 108 % of control

NC(=Nc1ccc([N+](=O)[O-])cc1)c1ccc(C(N)=Nc2ccc([N+](=O)[O-])cc2)cc1
inactive: dose: 6.25 mg/kg/injection, schedule: Q01DX015 (ip), vehicle: methylcellulose (MC) 102 % of control | dose: 12.5 mg/kg/injection, schedule: Q01DX015 (ip), vehicle: methylcellulose (MC) 100 % of control | dose: 25.0 mg/kg/injection, schedule: Q01DX015 (ip), vehicle: methylcellulose (MC) 96 % of control | dose: 50.0 mg/kg/injection, schedule: Q01DX015 (ip), vehicle: methylcellulose (MC) 93 % of control | dose: 62.5 mg/kg/injection, schedule: Q01DX015 (ip), vehicle: methylcellulose (MC) 90 % of control

COC(=O)C1CCC(NS(=O)(=O)c2ccc(C)cc2)CC1 (configuration not stated)
inactive: [12] 98 % of control | [13] 98 % of control | [14] 101 % of control

CCOC(=O)/C=C(\C)OC
inactive: [9] 102 % of control | dose: 100.0 mg/kg/injection, schedule: Q04DX003 (ip), vehicle: Klucel (hydroxypropylcellulose) (HPC) 96 % of control | [10] 97 % of control | dose: 200.0 mg/kg/injection, schedule: Q04DX003 (ip), vehicle: Klucel (hydroxypropylcellulose) (HPC) 105 % of control | [11] 94 % of control | dose: 400.0 mg/kg/injection, schedule: Q04DX003 (ip), vehicle: Klucel (hydroxypropylcellulose) (HPC) 100 % of control

CN1CC(COC(=O)CCc2ccc(N(CCCl)CCCl)cc2)C=C2c3cccc4[nH]cc(c34)C[C@H]21 (some centres not stated)
inactive: dose: 3.12 mg/kg/injection, schedule: Q01DX009 (ip), vehicle: saline 104 % of control | dose: 6.25 mg/kg/injection, schedule: Q01DX009 (ip), vehicle: saline 108 % of control | dose: 12.5 mg/kg/injection, schedule: Q01DX009 (ip), vehicle: saline 110 % of control and 114 % of control | dose: 25.0 mg/kg/injection, schedule: Q01DX009 (ip), vehicle: saline 117 % of control | dose: 25.0 mg/kg/injection, schedule: Q04DX003 (ip), vehicle: saline 93 % of control and 107 % of control | dose: 50.0 mg/kg/injection, schedule: Q01DX009 (ip), vehicle: saline 117 % of control | dose: 50.0 mg/kg/injection, schedule: Q04DX003 (ip), vehicle: saline 109 % of control and 117 % of control | dose: 100.0 mg/kg/injection, schedule: Q01DX009 (ip), vehicle: saline 91 % of control | [1] 112 % of control | [2] 124 % of control

O=NN1CCOCC1
inactive: dose: 50.0 mg/kg/injection, schedule: Q01DX001 (ip), vehicle: saline 104 % of control | [5] 93 % of control | [7] 104 % of control

O=C(N/N=C/c1ccccc1)NNCc1ccccc1
inactive: dose: 100.0 mg/kg/injection, schedule: Q01DX001 (ip), vehicle: other 97 % of control | dose: 100.0 mg/kg/injection, schedule: Q04DX003 (ip), vehicle: other 111 % of control | dose: 200.0 mg/kg/injection, schedule: Q01DX001 (ip), vehicle: other 97 % of control | dose: 200.0 mg/kg/injection, schedule: Q04DX003 (ip), vehicle: other 101 % of control | dose: 400.0 mg/kg/injection, schedule: Q01DX001 (ip), vehicle: other 104 % of control | dose: 400.0 mg/kg/injection, schedule: Q04DX003 (ip), vehicle: other 86 % of control

CC(=O)OC1CCC2(C)C3=C(CCC2C1(C)C)C1(C)CCC(c2ccc(C(C)C)oc2=O)C1(C)CC3 (configuration not stated)
inactive: dose: 100.0 mg/kg/injection, schedule: Q01DX001 (sc), vehicle: steriod suspending solution 103 % of control | dose: 200.0 mg/kg/injection, schedule: Q01DX001 (sc), vehicle: steriod suspending solution 106 % of control | dose: 400.0 mg/kg/injection, schedule: Q01DX001 (sc), vehicle: steriod suspending solution 103 % of control

O=C(NCCCl)NCC1CCCCO1 (configuration not stated)
inactive: [12] 100 % of control | [9] 108 % of control | [13] 98 % of control | [10] 108 % of control | [14] 86 % of control | [11] 101 % of control

Cc1cccc(SC(=O)Nc2ccc(Cl)cc2C)c1
inactive: dose: 12.5 mg/kg/injection, schedule: Q01DX009 (ip), vehicle: saline with Tween-80 91 % of control | dose: 25.0 mg/kg/injection, schedule: Q01DX009 (ip), vehicle: saline with Tween-80 95 % of control | [3] 119 % of control

COc1cccc(Nc2ccc(C(=O)O)cc2[N+](=O)[O-])c1
inactive: dose: 100.0 mg/kg/injection, schedule: Q04DX003 (ip), vehicle: water 98 % of control | dose: 200.0 mg/kg/injection, schedule: Q04DX003 (ip), vehicle: water 103 % of control | dose: 400.0 mg/kg/injection, schedule: Q04DX003 (ip), vehicle: water 98 % of control

CCC1(C(C)C)SC(N)=NC1=O (configuration not stated)
inactive: [4] 102 % of control | [6] 94 % of control | [8] 96 % of control

CN1CCN(CCSC(=O)N2c3ccccc3Sc3ccc(Cl)cc32)CC1
inactive: dose: 75.0 mg/kg/injection, schedule: Q01DX001 (ip), vehicle: saline 94 % of control

CC(C)(C)c1cccc(OS(=O)(=O)c2cccc([N+](=O)[O-])c2)c1
inactive: dose: 100.0 mg/kg/injection, schedule: Q04DX003 (ip), vehicle: saline with Tween-80 95 % of control | dose: 200.0 mg/kg/injection, schedule: Q04DX003 (ip), vehicle: saline with Tween-80 100 % of control | dose: 400.0 mg/kg/injection, schedule: Q04DX003 (ip), vehicle: saline with Tween-80 100 % of control

CC(C)CC(=O)OCc1ccc2c(c1)OCO2
inactive: dose: 222.0 mg/kg/injection, schedule: Q01DX Z (ip), vehicle: saline 109 % of control | dose: 333.0 mg/kg/injection, schedule: Q01DX Z (ip), vehicle: saline 102 % of control | dose: 500.0 mg/kg/injection, schedule: Q01DX Z (ip), vehicle: saline 108 % of control
